Test results reported in US12365687B2 (Hoffmann-La Roche Inc., priority 2021, dated 2025).

Key:
[1] = biological target: human GABAA α1β2γ1 receptor (Homo sapiens (Human), UniProt P14867+Q8N1C3); experiment: Radioligand binding assay for γ1-containing GABAA subtypes, [3H]RO7239181 competition (α1β2γ1)
Experimental: The affinity of compounds at GABAA γ1 subunit-containing receptors was measured by competition for [^3H]RO7239181 (67.3 Ci/mmol; Roche) binding to membranes from HEK293F cells (ThermoFisher R79007) expressing human (transiently transfected) receptors of composition α5β2γ1, α2β2γ1, α1β2γ1.
Harvested pellets from HEK293F cells expressing the different GABAA receptor subtypes were resuspended in Mannitol Buffer pH 7.2-7.4 (Mannitol 0.29 M, Triethylamine 10 mM, Acetic acid 10 mM, EDTA 1 mM plus protease inhibitors (20 tablets Complete, Roche Diagnostics Cat. No. 05 056 489 001 per liter)), washed two times and then resuspended at 1:10 to 1:15 dilution in the same buffer. Cell disruption was performed by stirring the suspension in a Parr vessel #4637 at 435 psi for 15 minutes, and then the suspensions were centrifuged at 1000×g for 15 minutes at 4° C. (Beckman Avanti J-HC; rotor JS-4.2). The supernatant (S1) was transferred in a 2 l Schott flask and the pellet (P1) was resuspended with Mannitol Buffer up to 175 ml. The resuspended pellet was transferred into a 250 ml Corning centrifugal beaker and centrifuged at 1500×g for 10 minutes at 4° C. (Beckman Avanti J-HC; rotor JS-4.2). The supernatant (S1) was then transferred in the 2 l Schott flask and the pellet was discarded. The supernatants (S1) were centrifuged in 500 ml Beckman polypropylene centrifugal beaker at 15′000×g for 30 minutes at 4° C. (Beckman Avanti J-20 XP; rotor JLA-10.500). The pellet (P2) was resuspended with Mannitol Buffer 1:1 and frozen at −80° C. The supernatant (S2) was centrifuged in 100 ml Beckman polypropylene centrifugal tubes at 48000×g for 50 minutes at 4° C. (Beckman Avanti J-20 XP; rotor JA-18). The supernatant (S3) was discarded and the pellet (P3) was resuspended with 1:1 Mannitol Buffer. The P2 and P3 protein concentration was determined with the BIORAD Standard assay method with bovine serum albumin as standard and measured on the NANO-Drop 1000. The membrane suspension was aliquots (500 μl per tube) and stored at −80° C. until required.
Membrane homogenates were resuspended and polytronised (Polytron PT1200E Kinematica AG) in Potassium Phosphate 10 mM, KCl 100 mM binding buffer at pH 7.4 to a final assay concentration determined with a previous experiment.
Assays were incubated to equilibrium for 1 hour at 4° C. and then, membranes were filtered onto unifilter (96-well white microplate with bonded GF/C filters preincubated 20-50 minutes in 0.3% Polyethylenimine) with a Filtermate 196 harvester (Packard BioScience) and washed 4 times with cold Potassium Phosphate 10 mM pH 7.4, KCl 100 mM binding buffer. After anhydrousing, filter-retained radioactivity was detected by liquid scintillation counting. Ki values were calculated using Excel-Fit (Microsoft) and are the means of two determinations.

[2] = biological target: α2β2γ1 GABAA receptor subtype (Homo sapiens (Human), UniProt P47869+Q8N1C3); experiment: Two-electrode voltage clamp electrophysiology in Xenopus oocytes expressing GABAA receptors (modulation of GABA EC20 current); type: cell-based; conditions: for Efficacy (GABA)%: % modulation of GABA EC20 = 100*(Fold increase-1), α2β2γ1 oocytes, compound at approx. 30-fold Ki; for Fold increase h-GABA-A α2β2γ1 oocyte @ 30-fold Ki: Xenopus oocytes expressing α2β2γ1, compound at approx. 30-fold its Ki α2β2γ1, GABA EC20 current
Method in brief: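 Each concentration was tested on ≥3 oocytes held at −80 mV at room temperature, recorded 3-5 days post-injection. A control and a test response to EC20 GABA (1.5 min each) were superimposed and their point-by-point ratio taken. Peak ratio reported as % modulation of GABA EC20 = 100×(fold increase−1).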

[3] = biological target: human GABAA α1β3γ2 receptor (Homo sapiens (Human), UniProt P14867+P18507); experiment: Radioligand binding assay for γ2-containing GABAA subtypes, [3H]Flumazenil competition (α1β3γ2); conditions: for γ2/γ1 Selectivity Ratio: Ki α1β3γ2 (nM)/Ki α2β2γ1 (nM); for LogSel: Log[Ki α1β3γ2 (nM)/Ki α2β2γ1 (nM)]
[4] = biological target: human GABAA α2β2γ1 receptor (Homo sapiens (Human), UniProt P47869+Q8N1C3); experiment: Radioligand binding assay for γ1-containing GABAA subtypes, [3H]RO7239181 competition (α2β2γ1)
[5] = biological target: human GABAA α5β2γ1 receptor (Homo sapiens (Human), UniProt P31644+Q8N1C3); experiment: Radioligand binding assay for γ1-containing GABAA subtypes, [3H]RO7239181 competition (α5β2γ1)
[6] = Ki h-GABAA α2β2γ1, [3H]RO7239181 competition binding, human GABAA α2β2γ1
[7] = Ki h-GABAA α2β2γ1, displacement of [3H]RO7239181, membranes of HEK293F cells expressing human receptors, means of two determinations

## C[C@@H]1N=C(c2c(F)cccc2F)c2c(ccc(Cl)c2Cl)-n2nc(C(=O)N3CCS(=O)(=O)CC3)nc21 [Example 36, [(4S)-7,8-dichloro-6-(2,6-difluorophenyl)-4-methyl-4H-[1,2,4]triazolo[1,5-a][1,4]benzodiazepin-2-yl]-(1,1-dioxo-1,4-thiazinan-4-yl)methanone]
[1]
  Ki: 8.25 nM
[2]
  Efficacy (GABA)%: 71%
  Fold increase h-GABA-A α2β2γ1 oocyte @ 30-fold Ki: 1.71
[3]
  Ki: 778 nM
  γ2/γ1 Selectivity Ratio: 224.7
  LogSel: 2.35
[4]; [6]
  Ki: 3.5 nM
[4]; [7]
  Ki: 3.46 nM
[5]
  Ki: 0.95 nM

## Cc1nnc(-c2nc3n(n2)-c2ccc(C(F)(F)F)c(Cl)c2C(c2ncccc2F)=N[C@H]3C)o1 [Example 144, 2-[(4S)-7-chloro-6-(3-fluoro-2-pyridyl)-4-methyl-8-(trifluoromethyl)-4H-[1,2,4]triazolo[1,5-a][1,4]benzodiazepin-2-yl]-5-methyl-1,3,4-oxadiazole]
[1]
  Ki: 179 nM
[2]
  Efficacy (GABA)%: 169%
  Fold increase h-GABA-A α2β2γ1 oocyte @ 30-fold Ki: 2.69
[3]
  Ki: 13500 nM
  γ2/γ1 Selectivity Ratio: 183.6
  LogSel: 2.26
[4]; [6]
  Ki: 73.5 nM
[4]; [7]
  Ki: 73.5 nM
[5]
  Ki: 8.3 nM

## C[C@@H]1N=C(c2c(F)cccc2F)c2c(ccc(C(F)(F)F)c2Cl)-n2nc(N3CCOC3=O)nc21 [Example 121, 3-[(4S)-7-chloro-6-(2,6-difluorophenyl)-4-methyl-8-(trifluoromethyl)-4H-[1,2,4]triazolo[1,5-a][1,4]benzodiazepin-2-yl]oxazolidin-2-one]
[1]
  Ki: 39.1 nM
[2]
  Efficacy (GABA)%: 52%
  Fold increase h-GABA-A α2β2γ1 oocyte @ 30-fold Ki: 1.52
[3]
  Ki: 1210 nM
  γ2/γ1 Selectivity Ratio: 218.2
  LogSel: 2.34
[4]; [6]
  Ki: 5.5 nM
[4]; [7]
  Ki: 5.5 nM
[5]
  Ki: 1.43 nM

## C[C@@H]1N=C(c2c(F)cccc2F)c2c(ccc(C(F)(F)F)c2Cl)-n2nc(C(=O)NN(C)C)nc21 [Example 117, (4S)-7-chloro-6-(2,6-difluorophenyl)-N′,N′,4-trimethyl-8-(trifluromethyl)-4H-[1,2,4]triazolo[1,5-a][1,4]benzodiazepine-2-carbohydrazide]
[1]
  Ki: 99.2 nM
[2]
  Efficacy (GABA)%: 92%
  Fold increase h-GABA-A α2β2γ1 oocyte @ 30-fold Ki: 1.92
[3]
  Ki: 5510 nM
  γ2/γ1 Selectivity Ratio: 276.4
  LogSel: 2.44
[4]; [6]
  Ki: 20 nM
[4]; [7]
  Ki: 20 nM
[5]
  Ki: 3.14 nM

## CCOC1CN(C(=O)c2nc3n(n2)-c2ccc(C(F)(F)F)c(Cl)c2C(c2ncccc2F)=N[C@H]3C)C1 [Example 137, [(4S)-7-chloro-6-(3-fluoro-2-pyridyl)-4-methyl-8-(trifluoromethyl)-4H-[1,2,4]triazolo[1,5-a][1,4]benzodiazepin-2-yl]-(3-ethoxyazetidin-1-yl)methanone]
[1]
  Ki: 130 nM
[2]
  Efficacy (GABA)%: 129%
  Fold increase h-GABA-A α2β2γ1 oocyte @ 30-fold Ki: 2.29
[3]
  Ki: 10500 nM
  γ2/γ1 Selectivity Ratio: 246.0
  LogSel: 2.39
[4]; [6]
  Ki: 42.6 nM
[4]; [7]
  Ki: 42.6 nM
[5]
  Ki: 6.58 nM

## C[C@@H]1N=C(c2c(F)cccc2F)c2c(ccc(C(F)(F)F)c2Cl)-n2nc(C(=O)N3CC(O)C3)nc21 [Example 58, (3-hydroxyazetidin-1-yl)-[(4S)-7-chloro-6-(2,6-difluorophenyl)-4-methyl-8-(trifluoromethyl)-4H-[1,2,4]triazolo[1,5-a][1,4]benzodiazepin-2-yl]methanone]
[1]
  Ki: 23.9 nM
[2]
  Efficacy (GABA)%: 112%
  Fold increase h-GABA-A α2β2γ1 oocyte @ 30-fold Ki: 2.12
[3]
  Ki: 1090 nM
  γ2/γ1 Selectivity Ratio: 156.8
  LogSel: 2.20
[4]; [6]
  Ki: 7 nM
[4]; [7]
  Ki: 7 nM
[5]
  Ki: 2.3 nM

## C[C@@H]1N=C(c2c(F)cccc2F)c2c(ccc(Cl)c2Cl)-n2nc(C(=O)NCCO)nc21 [Example 54, (4S)-7,8-dichloro-6-(2,6-difluorophenyl)-N-(2-hydroxyethyl)-4-methyl-4H-[1,2,4]triazolo[1,5-a][1,4]benzodiazepine-2-carboxamide]
[1]
  Ki: 15.2 nM
[2]
  Efficacy (GABA)%: 80%
  Fold increase h-GABA-A α2β2γ1 oocyte @ 30-fold Ki: 1.80
[3]
  Ki: 581 nM
  γ2/γ1 Selectivity Ratio: 132.7
  LogSel: 2.12
[4]; [6]
  Ki: 4.4 nM
[4]; [7]
  Ki: 4.38 nM
[5]
  Ki: 0.97 nM

## C[C@@H]1N=C(c2c(F)cccc2F)c2c(ccc(C(F)(F)F)c2Cl)-n2nc(C(=O)NCCO)nc21 [Example 107, (4S)-7-chloro-6-(2,6-difluorophenyl)-N-(2-hydroxyethyl)-4-methyl-8-(trifluoromethyl)-4H-[1,2,4]triazolo[1,5-a][1,4]benzodiazepine-2-carboxamide]
[1]
  Ki: 65.1 nM
[2]
  Efficacy (GABA)%: 103%
  Fold increase h-GABA-A α2β2γ1 oocyte @ 30-fold Ki: 2.03
[3]
  Ki: 3700 nM
  γ2/γ1 Selectivity Ratio: 319.1
  LogSel: 2.50
[4]; [6]
  Ki: 14 nM
[4]; [7]
  Ki: 11.6 nM
[5]
  Ki: 2.5 nM
